{
  "source": "patent US8677934B2",
  "about": "(Yissum Research Development Company of the Hebrew …, priority 2007, dated 2014)",
  "key": {"[1]": {"type": "in vitro ADME, Drosophila melanogaster", "method": "Liquid Chromatography—Mass Spectrometery (LC-MS/MS). Hemolymph was prepared as described in section 2.3, except that 50 D. melanogaster female-equivalents of unmated or mated female flies were used for 30 min incubations with 20 μg of T-SP. Reactions were terminated and processed as detailed in section 2.5. The supernatants of the methanol precipitations were lyophilized and resuspended by sonication in 100 μl of loading buffer (5% acetonitrile, 0.1% formic acid) and analyzed by LC-MS/MS. Briefly, the peptide mixtures were run in an Agilent 1100 series micro-flow HPLC system (Agilent Technologies, Inc., Palo Alto, Calif.) coupled to an Esquire-HCT ion trap mass spectrometer through the online nano-ESI ion source (Broker Daltonik GmbH, Bremen). Peptides were separated on a Protein-15-C18-150 microbore column (Micro-Tech Scientific, Cousteau, Court Vista, Calif.) using a 5% to 30% gradient of acetonitrile in 0.1% formic acid for 37 min at […], at a flow rate of 1 μl/min. MS and MS2 spectra were acquired in a data-driven way with parameters optimized for peptide mixture analysis. The resulting MS/MS chromatograms were processed by the DataAnalysis 3.1 application and further analysed with BioTools 2.2 (Broker Daltonik GmbH, Bremen) and MASCOT (Matrix Science), assuming the unknown specificity of the hemolymph protease. A 95% confidence interval was set as threshold. […]"}, "[2]": {"test_system": "D. melanogaster females", "assay": "Receptivity assay, ectopic expression in unmated females by heat-inducible GAL4 driver (hsp70-GAL4)", "type": "in vivo, Drosophila melanogaster", "conditions": "for duration of rejection behavior (kicking and extruding ovipositor): days examined", "method": "Heat shock. Transgenic unmated females carrying the mutated T-SP (hsp70-GAL4; UAS-T-SPX) were placed in empty vials supplemented with moisture filter paper. Files were placed in water bath and heated gradually from 25 to 37° C. Flies were kept at this temperature for 1 hr thereafter returned to room temperature for one hour for recovery. Recovered heat-shocked flies were placed in food vials and kept at 25° C. until used.\n(§1) Receptivity assay. Single unmated females of each homogenous UAS-T-SP transgene (see also Table 2) were placed in a food vial with single unmated 3-5-day-old males of the same UAS-T-SP transgene. Two parameters were monitored for one hour: (i) Receptivity rate—the number of female that mated; (ii) courtship behavior—whether or not female performed a rejection behaviors (kicking and extruding their ovipositor). […] For that a group of 10 females were isolated from each group and their behavior was inspected. […] These females will be exposed in the next day to newly unmated 3-5-day-old males (see section developing bioassay for additional details).\nTo examine the effect of the modified T-SP on female receptivity we first developed a sensitive bioassay that provided optimal conditions to test the transgenes. […] We examined two independent lines to determine the effect of exposure to one or two males and whether a window of one hour would be sensitive enough to detect changes in female behavior. Four-day-old unmated females were placed with one or two males in a fresh food vial and their behavior was documented. Mated females were separated from males and left in the food vials. Twenty four hours later the females were re-exposed to unmated 3-day-old males and inspected for mating encounter and courting behavior for 1 hour. […] About 50% of the females re-mated after 4 to 5 days (FIGS. 7A-B).\nSince a change in the willingness of the female to mate is expressed in their behavior, we next developed a qualitative behavioral bioassay. Mated females reject the courting males by extruding their ovipositor toward the male and/or by kicking the courting male. Theses behaviors are not seen in unmated females. We set up a system in which we inspected whether or not the female kicks the male and extrudes her ovipositor toward the male (see material and methods), both of which are predictors of female receptivity status."}, "[3]": {"test_system": "D. melanogaster females", "assay": "Receptivity assay, peptide expressed in male accessory glands and transferred to the female during mating", "type": "in vivo, Drosophila melanogaster", "conditions": "transgene received from male seminal fluid, FIG. 14", "from_the_text": "Transgenic flies. The GAL4-UAS system, first described by Brand and Perrimon (1993), was used for transgenesis of D. melanogaster. Briefly, T-SP was cloned into the pUAST vector, which bears an upstream activating sequence (UAS) site able to bind to the yeast transcription factor GAL4. Two separate fly lines are reared, the one (UAS) bearing the gene(s) to be transcribed and a chosen promoter (target line), the second being the GAL4 activating line. By select and controlled crossing of these two parent lines, the transgene, in this case T-SP or its amino-acid substituted homolog, is activated and expressed in the filial generation, at different times during development, and/or in select tissues, dependent on the promoter and inducer utilized. In this case, the GAL4 gene is under the control of the accessory gland specific promoter 26Aa that is induced only in the accessory glands (Park et al., 1994).\nRT-PCR. Expression was induced by a heat-inducible GAL4 driver (hsp70-GAL4), or with the Acp26Aa GAL4 driver (Acp26Aa-GAL4) which, restricts expression to the male accessory glands exclusively. To verify the expression of T-SP, groups of 10 heat-shocked females were taken at different time post-heat-shock, placed in Eppendorf tubes, quick-frozen in liquid nitrogen and kept at −80° C. until subject to RNA extraction. mRNA extraction was performed with Dynabeads (Invitrogen) according to the manufacturer's instructions.\nas §1, with “details). […]” for “details).”"}, "[4]": {"test_system": "trypsin activity of mated female hemolymph", "assay": "Trypsin inhibition assay: cleavage of N-Bnz-R-pna by mated female hemolymph", "type": "biochemical, Drosophila melanogaster", "conditions": "20 min pre-incubation, with DTT", "method": "Hemolymph sample preparation. Hemolymph from batches of 250 unmated or mated females was extracted 4 days after eclosion as in Lung and Wolfner (1999). Briefly, groups of 5 flies, punctured in the prothorax, were placed head down in chilled Eppendorf tubes (0.5 ml tube pierced in the bottom and inserted into intact 1.5 ml tubes) and centrifuged at 4° C. Tubes were inspected for presence of fat body. Ten μl of 100 mM Tris buffer, pH 8.0, was added to the first tube, and then the collected hemolymph plus Tris from tube 1 was transferred from this tube to the next tube and so on, in to pool hemolymph extracted from unmated or mated female flies.\nProtease and inhibition assays. Protease activity in D. melanogaster female hemolymph was assayed using chromogenic substrates. […]\nCommercial enzymes (response controls of the specific reaction mixture) were dissolved in 100 mM Tris buffer, pH 8.0, at a concentration of 5 μg/μl. […] Activity was recorded as increase in absorbance, due to the release of 4-nitroaniline, as measured using an ELISA reader with 405 nm filter in an ELISA Plate Reader (ELx800, Bio-Tek Instruments). Values are relative absorbance readings, obtained with equal fly-equivalents of hemolymph as source of protease. […] Hemolymph protein content was measured spectroscopically at 280 nm, and was 0.5-1 μg per female. […]"}, "[5]": {"test_system": "CA of young unmated female C. capitata", "assay": "In-vitro synthesis of JHB3 by the corpus allatum", "design": "species or system Ceratitis capitata", "conditions": "DrmSP with its N-terminal motif"}, "[6]": {"assay": "mated female hemolymph (50 D. melanogaster female-equivalents)", "conditions": "37° C., up to 40 min"}, "[7]": {"assay": "hemolymph extracted from 4-days old mated females, in 100 mM Tris buffer, pH 8.0", "conditions": "D. melanogaster, 37° C., up to 60 min"}, "[8]": {"test_system": "Elastase", "assay": "Elastase from porcine pancreas in 100 mM Tris buffer, pH 8.0", "conditions": "37° C., up to 60 min"}, "[9]": {"conditions": "hsp70-GAL4 driver, FIG. 10, wild-type threshold 4-5 days"}, "[10]": {"conditions": "other independent lines, FIG. 11, n=20"}},
  "note": "Positions of bridges follow the written chain, without caps; N, C: chain ends. Residues, ends and D or L forms follow the SMILES beside them.",
  "data": [
    {"molecule": "CC[C@H](C)[C@H](NC(=O)[C@@H]1CCCN1C(=O)[C@H](Cc1ccccc1)NC(=O)[C@H](CCCCN)NC(=O)[C@@H](NC(=O)[C@@H]1CCCN1C(=O)[C@@H](N)CCCCN)[C@@H](C)O)C(=O)N1CCC[C@H]1C(=O)N[C@@H](CO)C(=O)N1CCC[C@H]1C(=O)N[C@@H](CC(N)=O)C(=O)N1CCC[C@H]1C(=O)N[C@@H](CCCNC(=N)N)C(=O)N[C@@H](CC(=O)O)C(=O)N[C@@H](CCCCN)C(=O)N[C@@H](Cc1c[nH]c2ccccc12)C(=O)N[C@H]1CSSC[C@@H](C(=O)O)NC(=O)[C@H](CCCNC(=N)N)NC(=O)CNC(=O)CNC(=O)[C@H](Cc2c[nH]c3ccccc23)NC(=O)[C@H](C)NC(=O)[C@@H]2CCCN2C(=O)CNC(=O)[C@H](CC(C)C)NC(=O)[C@H](CC(N)=O)NC(=O)[C@H](CC(C)C)NC(=O)[C@H](CCCNC(=N)N)NC1=O", "note": "[T-SP] (H-KPTKFPIPSPNPRDKWCRLNLGPAWGGRC-OH; disulfide 17-29; N-terminus and C-terminus assumed)", "values": [
      {"measurement": "number of different fragments yielded", "setting": "[1]", "value": 11},
      {"measurement": "number of fragments obtained", "setting": "[1]", "value": "five"},
      {"measurement": "duration of induced female non-receptivity", "setting": "[2]; [9]", "value": 8, "unit": "days"},
      {"measurement": "duration of rejection behavior (kicking and extruding ovipositor)", "setting": "[2]; hsp70-GAL4 driver", "value": 8, "unit": "days"},
      {"measurement": "duration of induced female non-receptivity", "setting": "[2]; [10]", "value": 8, "unit": "days"},
      {"measurement": "time at which females commenced re-mating after the first mating", "setting": "[3]", "value": "three"}
    ]},
    {"molecule": "Cc1ccc(S(=O)(=O)N[C@@H](CCCCN)C(=O)CCl)cc1.Cl", "note": "[TLCK, Na-p-Tosyl-L-lysine chloromethyl ketone hydrochloride]", "values": [
      {"measurement": "reduced cleavage of N-Bnz-R-pna", "setting": "[4]; TLCK 1 mM final", "value": 40, "unit": "%"}
    ]},
    {"molecule": "DrmSP: Drosophila melanogaster Sex Peptide; mature form a linear peptide of 36 amino acids with an S-S bridge", "values": [
      {"measurement": "effect on in-vitro synthesis of JHB3", "setting": "[5]", "value": "depresses"}
    ]},
    {"molecule": "KPTKFPIPSPNPRDKWCRLNLGPAWGGRC", "values": [
      {"measurement": "cleaved bond", "setting": "[6]", "value": "R25-L26, major, 30 min"}
    ]},
    {"molecule": "N-Succinyl-Ala-Ala-Ala-pna", "values": [
      {"measurement": "not cleaved", "setting": "[7]", "value": "elastase activity was not observed"}
    ]},
    {"molecule": "N-Succinyl-Ala-Ala-Pro-Ile-pna", "values": [
      {"measurement": "cleaved bond", "setting": "[7]", "value": "I-pna"}
    ]},
    {"molecule": "N-Succinyl-Ala-Ala-Pro-Leu-pna", "values": [
      {"measurement": "cleaved bond", "setting": "[7]", "value": "L-pna"}
    ]},
    {"molecule": "N-Succinyl-Ala-Ala-Val-pna", "values": [
      {"measurement": "cleaved bond", "setting": "[8]", "value": "V-pna"},
      {"measurement": "cleaved bond", "setting": "[7]", "value": "V-pna"}
    ]},
    {"molecule": "T-SPQ: T-SP with arginine at position 25 substituted with glutamine, KPTKFPIPSPNPRDKWCQLNLGPAWGGRC (SEQ ID NO: 12); expressed transgenically", "values": [
      {"measurement": "duration of induced female non-receptivity", "setting": "[2]; [9]", "value": 8, "unit": "days"},
      {"measurement": "duration of rejection behavior (kicking and extruding ovipositor)", "setting": "[2]; hsp70-GAL4 driver", "value": 8, "unit": "days"},
      {"measurement": "duration of induced female non-receptivity", "setting": "[2]; [10]", "value": 8, "unit": "days"},
      {"measurement": "percentage of re-mating compared with T-SP", "setting": "[3]", "value": "lower percentages"},
      {"measurement": "time at which females commenced re-mating after the first mating", "setting": "[3]", "value": 5, "unit": "days"}
    ]},
    {"molecule": "Z-Gly-Gly-Leu-p-Nitroanilide", "values": [
      {"measurement": "not cleaved", "setting": "[7]", "value": "Neither chymotrypsin nor subtilisin activity were evident"}
    ]},
    {"molecule": "Bowman-Birk inhibitor (protein) DDESSKPCCDQCACTKSNPPQCRCSDMRLNSCHSACKSCICALSYPAQCFCVDITDFCYEPCKPSEDDKEN", "values": [
      {"measurement": "reduced cleavage of N-Bnz-R-pna", "setting": "[4]; BBI 5 μM final", "value": 78, "unit": "%"}
    ]}
  ]
}
